Data on 2 molecules can be found in patent US7893069B2, “Substituted imidazo[2,1-b]thiazole compounds and uses thereof” (Gruenenthal GmbH, priority 2006, dated 2011).

In test [1] the target is T1, mGluR5 receptor (human) (Homo sapiens, UniProt P41594).
T1 construct: host or cells: CHO-hmGluR5 cells (purchased cell line; incubated overnight with doxycycline)
The experiment in a line: Functional Ca2+ influx assay in CHO-hmGluR5 cells (DHPG-stimulated, FLIPR). The class given is cell-based. As to conditions: 10 μM DHPG, Ki=IC50/(1+AGConc./EC50). The protocol: The data is analyzed by means of a 1-factorial ANOVA (comparison of treatment groups versus vehicle group). The significance level is set at p<0.05. All the groups have a size of N=10. The test is also described in Hogg, S. (1996) “A review of the validity and variability of the elevated plus-maze as an animal model of anxiety,” Pharmacol. Biochem. Behav. 54, 21-30, and in Rodgers, R. J., Cole, J. C. (1994) “The elevated plus-maze: pharmacology, methodology and ethology,” in Cooper, S. J., Hendrie, C. A. (eds.) Ethology and Psychopharmacology. Wiley & Sons; pp. 9-44. 5. Description of the Functional Ca^2+ Influx Assay […]
After recording the fluorescence base line for 10 sec., 50 μl test substance solution (various test substance concentrations in HBSS buffer with 1% DMSO and 0.02% Tween 20, Sigma) is added and the fluorescence signal is measured for 6 min. 50 μl DHPG solution ((S)-3,5-dihydroxyphenylglycine, Tocris Biotrend Chemikalien GmbH, Cologne, Germany, final DHPG concentration: 10 μM) is subsequently added and the inflow of Ca^2+ is simultaneously measured for 60 sec. […] The data is analysed with Microsoft Excel and GraphPad Prism. The dose-effect curves are calculated with non-linear regression and IC50 values determined. Each data point is determined 3 times and IC50 values are averaged from a minimum of 2 independent measurements. […]

For test [2], the target named is T2, mGluR5 receptor (pig) (Sus scrofa, UniProt I3LUI7).
T2 construct: 450 μg protein from brain homogenate is incubated with 5 nM; from tissue; host or cells: pig brain halves without medulla, cerebellum and pons; homogenate, differential centrifugation
The experiment in a line: [3H]-MPEP binding assay, pig brain homogenate. The note with it: displacement of 5 nM [3H]-MPEP, 450 μg protein from pig brain homogenate, 60 min, room temperature; read-out: IC50 [3H]-MPEP bond mGluR5 receptor (pig). The protocol:
Substituted imidazo[2,1-b]thiazole compounds corresponding to the foregoing formula I are likewise particularly preferred, which, after 60 minutes of incubation in 450 μg protein from pig brain homogenate at a temperature between 20° C. and 25° C. in a concentration of less than 2500 nM, preferably less than 1000 nM, particularly preferably less than 700 nM, very particularly preferably less than 100 nM, even more preferably less than 70 nM, bring about a 50-percent displacement of [^3H]-2-methyl-6-(3-methoxyphenyl)-ethynylpyridine which is present in a concentration of 5 nM. The determination of the displacement of [^3H]-2-methyl-6-(3-methoxyphenyl)-ethynyl-pyridine is performed as described hereinafter in the section Pharmacological Methods, I. Method for determining the inhibition of [^3H]-MPEP-bonding in the mGluR5 receptor bonding assay.
1. Method for Determining the Affinity to the mGluR5 Receptor
Pig brain homogenate is produced by homogenization (Polytron PT 3000, Kinematica AG, 10,000 rpm for 90 seconds) of pig brain halves without medulla, cerebellum and pons in buffer pH 8.0 (30 mM Hepes, Sigma, order no. H3375+1 tablet complete to 100 ml, Roche Diagnostics, order no. 1836145) in ratio 1:20 (brain weight/volume) and differential centrifugation at 900×g and 40,000×g. In each case, 450 μg protein from brain homogenate is incubated with 5 nM ^3-[H]-MPEP (Tocris, order no. R1212) (MPEP=2-methyl-6-(3-methoxyphenyl)-ethynylpyridine) in 250 μl incubation batches in 96 well microtitration plates and the compounds to be tested (10 μM in the test) in buffer (as above) at room temperature for 60 min.
Thereafter, the batches are filtered with the help of a Brandel Cell Harvester (Brandel, TYP Robotic 9600) on unifilter plates with glass fibre filter mats (Perkin Elmer, order no. 6005177) and subsequently washed with buffer (as above) 3 times with in each case 250 μl per sample. The filter plates are subsequently dried for 60 min at 55° C. 30 μL Ultima Gold™ scintillator is subsequently added per well (Packard BioScience, order no. 6013159) and the samples are measured after 3 hours on the β-counter (Mikrobeta, Perkin Elmer). The unspecific bond is determined by addition of 10 μM MPEP (Tocris, order no. 1212).

Test [3] deals with rat. In words: Formalin test in rats (phase 2, chronic pain component). As to conditions: p.o., 10 mg/kg, administered 30 min before formalin. Type of test: in vivo. The protocol:
2a. Formalin Test in Rats The formalin test (Dubuisson, D. and Dennis, S. G., 1977, Pain, 4, 161-174) represents a model for acute and chronic pain. A biphasic nociceptive reaction, which is recorded by observation of three clearly differentiable behavioural patterns, is induced by a single formalin injection into the dorsal side of a rear paw in freely mobile test animals. The reaction has two phases: Phase 1=Immediate reaction (duration up to 10 min; paw shaking, licking), Phase 2=Late reaction (after a rest phase; likewise, paw shaking, licking; duration up to 60 min). The 1st phase reflects a direct stimulation of the peripheral nocisensors with high spinal nociceptive input or glutamate release (acute pain phase); the 2nd phase reflects a spinal and peripheral hypersensitisation (chronic pain phase). In the investigations presented here, the chronic pain component (phase 2) was evaluated. Formalin with a volume of 50 μl and a concentration of 5% is administered subcutaneously into the dorsal side of the right rear paw of each animal. The substances to be tested are administered 30 min before the formalin injection orally (p.o), intravenously (i.v.) or intraperitoneally (i.p.). The specific changes in behavior such as lifting and shaking the paw, shifts in weight of the animal as well as biting and licking reactions are observed and registered in the period of observation from 21 to 27 min after formalin injection. The various forms of behavior are summarized in the so-called pain rate (PR), which, relative to the sub-intervals of 3 min, represents the calculation of an average nociception reaction. […] The group size is 10 animals (n=10). 2b. Formalin Test in Mice

In general, Ki refers to a dissociation constant, usually derived from enzyme kinetics or from competition with a known ligand. Lower therefore signals a stronger hold on the target. What is called IC50 is the point on the concentration scale where inhibition reaches its midpoint.

T1 sequence (P41594 21-1212): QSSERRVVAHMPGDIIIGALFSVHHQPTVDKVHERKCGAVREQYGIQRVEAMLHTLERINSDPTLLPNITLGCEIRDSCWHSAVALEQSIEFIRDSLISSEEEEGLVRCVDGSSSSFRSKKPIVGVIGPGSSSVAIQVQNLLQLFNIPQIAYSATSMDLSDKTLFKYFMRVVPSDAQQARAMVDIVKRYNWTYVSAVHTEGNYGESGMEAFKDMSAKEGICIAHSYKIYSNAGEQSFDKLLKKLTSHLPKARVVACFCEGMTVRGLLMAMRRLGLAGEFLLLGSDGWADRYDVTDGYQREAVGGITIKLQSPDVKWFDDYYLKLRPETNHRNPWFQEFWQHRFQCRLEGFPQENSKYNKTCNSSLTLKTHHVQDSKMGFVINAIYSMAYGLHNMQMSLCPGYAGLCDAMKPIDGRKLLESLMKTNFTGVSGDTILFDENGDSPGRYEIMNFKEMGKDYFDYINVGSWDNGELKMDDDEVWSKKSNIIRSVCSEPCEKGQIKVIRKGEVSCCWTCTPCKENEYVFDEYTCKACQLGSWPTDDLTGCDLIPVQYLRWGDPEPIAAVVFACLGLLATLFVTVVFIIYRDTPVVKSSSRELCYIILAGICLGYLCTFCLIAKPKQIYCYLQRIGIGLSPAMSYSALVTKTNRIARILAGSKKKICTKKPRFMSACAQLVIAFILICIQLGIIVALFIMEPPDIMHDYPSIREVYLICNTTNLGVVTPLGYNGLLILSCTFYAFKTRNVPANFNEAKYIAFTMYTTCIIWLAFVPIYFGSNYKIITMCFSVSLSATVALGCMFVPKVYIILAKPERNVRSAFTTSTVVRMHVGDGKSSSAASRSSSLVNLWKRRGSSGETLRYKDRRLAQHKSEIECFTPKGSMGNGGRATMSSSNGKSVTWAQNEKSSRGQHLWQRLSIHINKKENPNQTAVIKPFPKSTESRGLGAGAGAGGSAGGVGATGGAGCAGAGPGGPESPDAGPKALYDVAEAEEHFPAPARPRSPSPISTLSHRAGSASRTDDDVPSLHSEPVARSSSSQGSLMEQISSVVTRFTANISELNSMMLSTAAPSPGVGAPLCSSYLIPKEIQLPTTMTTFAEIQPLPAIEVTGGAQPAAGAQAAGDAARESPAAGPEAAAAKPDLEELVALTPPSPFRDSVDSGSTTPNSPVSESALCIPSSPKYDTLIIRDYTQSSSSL
T2 sequence (I3LUI7 19-1212): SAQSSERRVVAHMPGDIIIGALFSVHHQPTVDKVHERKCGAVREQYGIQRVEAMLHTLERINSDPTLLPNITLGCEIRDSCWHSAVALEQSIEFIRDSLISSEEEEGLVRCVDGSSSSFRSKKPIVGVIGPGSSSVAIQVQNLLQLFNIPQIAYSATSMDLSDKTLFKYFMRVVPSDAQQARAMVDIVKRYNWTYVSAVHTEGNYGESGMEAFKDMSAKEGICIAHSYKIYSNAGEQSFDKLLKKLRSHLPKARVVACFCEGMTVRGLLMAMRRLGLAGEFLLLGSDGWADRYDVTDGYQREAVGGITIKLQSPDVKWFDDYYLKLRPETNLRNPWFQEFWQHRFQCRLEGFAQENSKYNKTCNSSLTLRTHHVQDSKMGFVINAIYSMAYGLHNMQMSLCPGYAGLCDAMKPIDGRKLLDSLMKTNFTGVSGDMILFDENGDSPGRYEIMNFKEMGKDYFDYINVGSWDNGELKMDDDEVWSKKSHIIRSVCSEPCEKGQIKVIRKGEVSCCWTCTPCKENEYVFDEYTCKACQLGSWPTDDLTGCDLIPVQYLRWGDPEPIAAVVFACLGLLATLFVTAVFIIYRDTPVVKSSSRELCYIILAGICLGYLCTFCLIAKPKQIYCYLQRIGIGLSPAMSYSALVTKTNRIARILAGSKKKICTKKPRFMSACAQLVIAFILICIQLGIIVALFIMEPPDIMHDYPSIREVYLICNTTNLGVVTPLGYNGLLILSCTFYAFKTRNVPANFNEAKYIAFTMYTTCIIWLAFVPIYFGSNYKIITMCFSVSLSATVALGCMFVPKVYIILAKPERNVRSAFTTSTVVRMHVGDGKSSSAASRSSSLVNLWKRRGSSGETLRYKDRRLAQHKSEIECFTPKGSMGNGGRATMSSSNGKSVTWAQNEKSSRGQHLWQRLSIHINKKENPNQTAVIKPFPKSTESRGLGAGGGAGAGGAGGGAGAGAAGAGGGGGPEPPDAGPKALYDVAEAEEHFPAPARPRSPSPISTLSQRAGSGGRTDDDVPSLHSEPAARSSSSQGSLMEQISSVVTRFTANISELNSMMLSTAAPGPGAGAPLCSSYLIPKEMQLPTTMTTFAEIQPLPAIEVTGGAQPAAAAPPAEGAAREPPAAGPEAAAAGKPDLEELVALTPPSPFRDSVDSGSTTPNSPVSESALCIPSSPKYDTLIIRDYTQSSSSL

Consider `Cc1cn2c(NC(C)(C)C)c(-c3ccc(C#Cc4ccccn4)s3)nc2s1` [Example 4, N-tert-butyl-2-methyl-6-(5-(pyridine-2-ylethynyl)thiophene-2-yl)imidazo[2,1-b]thiazole-5-amine], for which the affinity in test [1], expressed as Ki, was 0.31 nM. Further, in test [2], the 50% inhibitory concentration (IC50) was found to be 5.5 nM. In addition, the “Formalin test (rat) p.o. Reduction in the nociceptive behavior over controls at 10 mg/kg” value in test [3] is recorded as 62%.
The molecule `CC(C)(C)Nc1c(-c2ccc(C#Cc3ccncc3)s2)nc2sccn12` [Example 7, N-tert-butyl-6-(5-(pyridine-4-ylethinyl)thiophene-2-yl)imidazo[2,1-b]thiazole-5-amine] displayed a Ki in test [1] of 0.26 nM. Moreover, the IC50 in test [2] was 3 nM.
